Values quoted from earlier work, collected in patent US10174388B2, “Method for selection of agents influencing intestinal motility disorders and pain” (BioGaia AB, priority 2012, dated 2019).
Where two headings read alike, the source gives them in different places.

Conditions: baseline 197 minutes in both groups

## simethicone
Day 7
  median daily crying time: 177 min
Day 28
  median daily crying time: 145 min
